The test system of one data set is MDA-MB-231 cells. The data set can be described thus: Cell validation: cytotoxicity in MDA-MB-231 cells (CellTiter-Glo). The data set is classed as cell-based. The method in brief:
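MDA-MB-231 cells were seeded at 2000 cells/well and exposed to compounds for the specified number of days. Medium was then replaced with a 1:1 CellTiter-Glo reagent/serum-supplemented DMEM mix for 10 min, and viability was read as luminescence, proportional to living cell number.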
In general terms: In ATP-based viability assays light output follows the ATP content of the culture.

Data set [1] deals with 4T1 R4 cells. Nature of the data set: Cell viability assay, 4T1 R4 cells. The data set is classed as cell-based, mouse. Particulars: with 400 nM paclitaxel, 72 hr. The procedure: (§1) MCF-7, MDA-MB-231, MDA-MB-468, Hs578T, 4T1, and HeLa cell lines stably expressing H2B-mCherry and eGFP-tubulin (kindly provided by Dr. Anthony A. Hyman, Max-Planck-Institute for Molecular Cell Biology and Genetics, Dresden, Germany) were cultured in high-glucose Dulbecco's Modified Eagle Medium (DMEM). SK-BR-3 cells were cultured in McCoy's Modified 5a Medium. Hs578T cells were cultured in high-glucose DMEM supplemented with an additional 0.01 mg/mL bovine insulin. […] All mentioned media were supplemented with 10% fetal bovine serum (Gibco) and 1% Penicillin/Streptomycin (Corning), and cells were incubated at 37° C. in a humidified atmosphere containing 5% CO2. HEK293 cells were cultured in HE300 medium (GMEP incorporated, Japan) and maintained in suspension culture with 125 rpm and 8% CO2.
(§2) The cancer cells were cultured in a 96-well plate at a confluence of 1000-2000 cells/well with indicated drugs for specific days. When the time was up, the culture medium in the plate was aspirated and replaced with a prepared CellTiter-Glo reagent/DMEM mixture (1:1 mix of CellTiter-Glo reagent and serum-supplemented DMEM). After incubation for 10 min, the luminescence (proportional to the number of living cells) was measured with an ELISA plate reader to determine the cell viability.

Data set [2] relates to 4T1 R8 cells. Nature of the data set: Cell viability assay, 4T1 R8 cells. The data set is classed as cell-based, mouse. Particulars: with 400 nM paclitaxel, 72 hr. As to the method:
as §1, §2

The test system of data set [3] is 4T1 cells. Nature of the data set: Flow cytometry analysis of cell membrane penetration ability. Particulars: 2 hr of drug treatment. The data set is classed as cell-based, mouse. The procedure: To quantify the cell membrane penetration ability of different DHTP analogs, 4T1 cells were collected by trypsin after 2 hr of drug treatment and then transferred into microcentrifuge tubes. 4T1 cells were then resuspended into the FACS buffer (1% FBS, 2 mM EDTA, and 0.05% NaN3 in PBS). After two times of FACS buffer rinsing, these samples were detected by flow cytometry (Cyto FLEX™ FLOW Cytometer). The KO525 (405 nm laser; 525 nm filter) channel was used to detect DHTP and 7S9.
On the technique in general: A flow cytometer gives signals particle by particle.

The test system of another data set is 4T1 S1 cells. Nature of the data set: Colony formation assay, 4T1 S1 cells. The settings on record: 1 μM 7S9 with 400 nM paclitaxel. The data set is classed as cell-based, mouse. The procedure:
(§3) To assess the long-term survival of breast cancer cell lines following the treatment of KIF2C knockdown or inhibition, the cells trypsinized into single-cell suspension were homogeneously seeded in 6-well cell culture plates at a density of 5000 cells per dish, supplemented with 2× complete medium (50% 4×DMEM, 20% FBS, 2% penicillin-streptomycin, ddH2O, and 2× glutaMAX™), agarose (0.6% for bottom agar layer; 0.3% for top cell layer), ddH2O, and DMEM. After incubation for 24 hr, cells were treated with indicated drugs, such as DMSO, KIF2C inhibitors, or chemotherapy drugs, and then cultured at 37° C. incubator in an atmosphere of humidified air with 5% CO2 for a further 14-30 days. When the cell colonies grew to appropriate sizes, the culture mediums were replaced with PBS for washing. After that, the plates were stained with 10% crystal violet and analyzed using Image J.

Data set [4] relates to 4T1 R4 cells. Nature of the data set: Colony formation assay, 4T1 R4 cells. Particulars: 1 μM 7S9 with 400 nM paclitaxel. The data set is classed as cell-based, mouse. The procedure:
as §3

In data set [5] the test system is 4T1 R8 cells. The data set can be described thus: Colony formation assay, 4T1 R8 cells. The data set is classed as cell-based, mouse. The settings on record: 1 μM 7S9 with 400 nM paclitaxel. The procedure: as §3
In data set [6] the test system is 4T1 R4 cells. Nature of the data set: Time-lapse imaging of mitotic progression, 4T1 R4 cells. The data set is classed as cell-based, mouse. Particulars: 1 μM 7S9 and 400 nM paclitaxel. The procedure:
(§4) To investigate the role of KIF2C in cell cycle progression, 4T1 cells were cultured in the 4-well chamber slide with about 50% confluence. The culture medium was replaced with a CO2-independent medium (Gibco) supplemented with 10% fetal bovine serum (Biological Industries) and 1% penicillin-streptomycin (Biowest). Then, each well of the chamber slide was treated with indicated drugs, such as DMSO, KIF2C inhibitors, or chemotherapy drugs. After that, the chamber slide was maintained in the microscope stage incubator with the supplement of humidified air with 5% CO2 at 37° C. Multiple-positional time-lapse imaging was performed using an automated Leica DM16000 inverted microscope equipped with HCX PL FL 20×/0.4 and EMCCD camera (Andor Luca R, Belfast, UK). Sequential differential interference contrast (DIC) images of cells obtained at indicated intervals were further analyzed using Metamorph software (Molecular Devices).

Data set [7] deals with 4T1 R8 cells. The data set can be described thus: Time-lapse imaging of mitotic progression, 4T1 R8 cells. The data set is classed as cell-based, mouse. Particulars: 1 μM 7S9 and 400 nM paclitaxel. As to the method:
as §4

Data set [8] deals with 4T1 cells. Nature of the data set: In vivo tumor growth inhibition, 4T1 syngeneic model. Further details: species or system mouse. The settings on record: 4T1 tumors, BALB/c mice. The procedure:
(§5) The mice were housed at the National Health Research Institute (NHRI) Animal Center in accordance with the Institutional Animal Care and Use Committee procedures and guidelines. The 4T1-derived cells, including 4T1, 4T1 R4, and 4T1 R8, used for implantation were harvested during log phase growth and resuspended in phosphate-buffered saline. Each mouse was injected s.c. in the right flank with 5×10^5 cells. After tumor size reached 60-100 mm 3 (D1), mice were divided into groups and received treatment with vehicle or different compounds alone or in combinations. Tumor size, in mm 3, was measured twice per week and calculated from Tumor volume=(w 2×1)/2, where w=width and 1=length in mm of the tumor. The values of tumor size were expressed as mean±SEM.

A further data set has as its system 4T1 R4. Nature of the data set: In vivo tumor growth inhibition, 4T1 R4 syngeneic model. Further details: species or system mouse. Particulars: R4 tumors, BALB/c mice. As to the method: as §5
Setting [9] is: 7S9 50 mg/kg intraperitoneally, 5on/2off two cycles.

Regarding `CCN1CCN(C(=O)COc2ccc(/C=c3\sc4n(c3=O)C(c3ccc(Cl)cc3)C(C(=O)OC(C)C)=C(C)N=4)cc2)CC1.O=C(O)/C=C\C(=O)O` (centres unmarked) [7S9 (133), isopropyl (Z)-5-(4-chlorophenyl)-2-(4-(2-(4-ethylpiperazin-1-yl)-2-oxoethoxy)benzylidene)-7-methyl-3-oxo-2,3-dihydro-5H-thiazolo[3,2-a]pyrimidine-6-carboxylate maleate], in the data set on MDA-MB-231 cells (72 hr), the “cytotoxicity on MDA-MB-231 cells (in words)” value is on record as “showed cytotoxicity”. The “Cell validation (IC50)” value in the data set with MDA-MB-231 cells (cytotoxicity in MDA-MB-231 cells) is “+ + +”. For the same molecule, the results for the “fold increase of cell sensitivity to 7S9 by paclitaxel” value in the data set with 4T1 R4 cells [1] and with 4T1 R8 cells [2] were 10.5 fold and 8 fold, respectively. The “cell penetration, fluorescence signal at 510 nm emission (in words)” value with 4T1 cells [3] was “good cell-penetrating property”. Besides, the “colony formation, combined treatment (in words)” value was “did not further suppress colony formation” with 4T1 S1 cells; “suppression of colony formation was detected only with combined treatment of 7S9 and paclitaxel” with 4T1 R4 cells [4]; “suppression of colony formation was detected only with combined treatment of 7S9 and paclitaxel” with 4T1 R8 cells [5]. Also, the “mitotic defects, combined treatment (in words)” value with 4T1 R4 cells [6] and with 4T1 R8 cells [7] was “induced significant defects in mitosis” each time. The tumor growth inhibition in the data set with 4T1 cells [8] (setting [9]) came to 20.3%; with 4T1 R4 (setting [9]) it was 29%. Moreover, the “tumor growth inhibition, combination” value in the data set with 4T1 cells [8] (7S9 50 mg/kg with paclitaxel 5 mg/kg) turned out to be 62.6%; in the data set with 4T1 R4 (7S9 50 mg/kg with paclitaxel 15 mg/kg) it was 70.2%.

The values are drawn from US20250129101A1, “Compound, Pharmaceutical Composition Comprising the Same and Method for Treating Cancer Using the Same” (NATIONAL TSING HUA UNIVERSITY, priority 2023, published 2025).
